The test has as its target T1, THP1 dual cell (Homo sapiens, UniProt Q8N697).
T1 construct: R848 (TLR7/8)-stimulated ISRE reporter
Description: THP1 DUAL/ISRE cell reporter assay (R848 stimulated). The class given is cell-based. How it is done:
CAL-1, THP1 or human primary cells were incubated with dTASL1 and other identified compounds (or the corresponding volume of DMSO vehicle) for 24 h or 48 h at the indicated concentration and subsequently stimulated with R848 (5 μg/ml) for the indicated time. Supernatant or cells were recovered for ELISA, SDS-PAGE or microscopy-based analysis.
THP1 DUAL cells (1×10^5 cells per 96 well) were incubated with compounds for 24 h or 48 h, and subsequently stimulated for 20 h as indicated. Cell culture supernatant were collected, cleared of residual cells by centrifugation and analyzed for NF-κB and ISRE reporter activity according to the manufacturer's instructions. For experiments in 384-well format, compounds were pre-plated at defined concentrations and THP1 dual cells were added at 800 k/well concentration in […]. After incubation for 24 h or 48 h cells were stimulated with […] of a 25 μg/ml stock of R848 or 0.5 μg/ml Pam3CKS4 5× stocks as indicated for 20 h and detected by directly adding Quanti-Luc Plus (Invivogen) solution to the plates, according to the manufacturer's instructions and without adding stabilizer solution. Quanti-Blue detection was carried out according to the manifacturers instructions, with QB reagent and buffer (Invivogen) dissolved in 30 ml water, instead of the 100 ml used for standard detection.
Based on potency and kinetics, the compound C5 was selected for further characterization (FIG. 2E). C5 is an elongated molecule comprised of an aromatic 2-(4-ethoxyphenyl)-quinoline moiety followed by an amide bond and an aliphatic 2-methyl-1-propylpiperidine (FIG. 2F). To validate the scaffold and explore the chemical space at the aliphatic end of the compound, five analogues and an independently synthesized batch of C5 were obtained. […] Therefore the C5 compound was selected, which was named dTASL1 as its activity leads to TASL degradation, to assess effects on TLR7/8-induced signaling and responses.
The following compounds were assayed for their activity in the degradation assay (THP1 DUAL/ISRE cell reporter assay), as described herein: […]

The mark [1] stands for this setting: 24 h treatment before R848 stimulation, read-out: IC50 24 h.
Setting [2] is: 48 h treatment before R848 stimulation, read-out: IC50 48 h.

Where two headings read alike, the source gives them in different places.

The IC50 is the point on the concentration scale where inhibition reaches its midpoint.

T1 sequence (Q8N697 whole entry): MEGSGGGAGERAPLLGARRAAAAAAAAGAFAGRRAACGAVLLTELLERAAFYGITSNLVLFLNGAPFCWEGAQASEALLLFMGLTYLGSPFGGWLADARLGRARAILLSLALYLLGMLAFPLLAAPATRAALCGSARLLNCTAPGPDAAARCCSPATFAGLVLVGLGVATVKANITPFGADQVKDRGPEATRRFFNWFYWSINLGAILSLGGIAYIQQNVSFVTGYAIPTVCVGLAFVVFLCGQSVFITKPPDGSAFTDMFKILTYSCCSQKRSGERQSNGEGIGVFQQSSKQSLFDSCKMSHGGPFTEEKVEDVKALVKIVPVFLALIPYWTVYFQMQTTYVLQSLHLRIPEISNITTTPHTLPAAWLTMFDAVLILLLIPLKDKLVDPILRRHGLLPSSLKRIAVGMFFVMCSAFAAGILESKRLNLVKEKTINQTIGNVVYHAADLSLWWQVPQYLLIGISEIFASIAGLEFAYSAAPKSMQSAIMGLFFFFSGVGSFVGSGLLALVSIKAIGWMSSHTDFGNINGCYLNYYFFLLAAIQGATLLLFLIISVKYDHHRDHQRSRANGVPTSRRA

As to `CCOc1ccc(-c2cc(C(=O)NCCCN3CCCCCC3)c3ccccc3n2)cc1` [dTASL1-a2], the IC50 under setting [1] stood at 3.49 µM and the IC50 under setting [2] worked out at 2.96 µM.
On to `CCOc1ccc(-c2cc(C(=O)NCCCN3CCCCC3)c3ccccc3n2)cc1` [dTASL1-a4], for which the IC50 runs as follows: under setting [1], 4.16 µM; under setting [2], 2.39 µM.

(Values after US20260364088A1, “TASL MIMICKING MOLECULES AND APPLICATIONS THEREOF” (CEMM - FORSCHUNGSZENTRUM FÜR MOLEKULARE MEDIZIN GMBH, priority 2022, published 2026).)
